In PMC8879074, “A Novel Small Molecular Prostaglandin Receptor EP4 Antagonist, L001, Suppresses Pancreatic Cancer Metastasis” (Molecules, 2022):

Assays:
[1] = Body weight of mice in Pan02-Luc metastasis model; type: in vivo, C57BL/6 mice; conditions: L001 75 mg/kg p.o. daily; gemcitabine 25 mg/kg i.p. twice a week; n = 6
Experimental: (§1) Male C57/BL6 mice (6–8 weeks) were obtained from the National Rodent Laboratory Animal Resources (NRLAR, Shanghai, China). All mice were housed according to Institutional Animal Care and Use Committee guidelines and under a protocol approved by East China Normal University Ethics Committee with respect to animal care and welfare assurance. The bioluminescent liver metastasis mouse model was established as described previously. In brief, 2 × 10^6 Pan02/luc cells suspended in 50 μL of PBS were injected into mice spleen. […] Tumor metastasis was monitored by using an in vivo imaging system following intraperitoneal injection with D-Luciferin (2 mg per mouse; Promega). Bioluminescence intensity was recorded every seven days by a Xenogen IVIS-200 Optical in vivo imaging system (PerkinElmer; Waltham, MA, USA) for up to 4 weeks. The mouse body weight was measured every other day. Survival curve analysis was performed using GraphPad Prism 7.

[2] = system: Pan02-Luc hepatic metastasis; experiment: Pan02-Luc liver metastasis model with bioluminescent imaging; type: in vivo, C57BL/6 mice; conditions: L001 or E7046 75 mg/kg p.o. daily, gemcitabine 25 mg/kg i.p. twice a week; for reduction of Pan02 cell liver metastases (bioluminescence of separated livers) / reduction in median luminescence signal compared with vehicle control group: n = 6; for reduction in median luminescence signal compared with vehicle control group: day 28; for median survival: n = 9, control 34 days
Experimental: as §1
Mouse liver tissues were harvested, fixed, paraffin embedded, and sectioned (8 μm). The tissues were permeabilized with 0.25% TritonX-100 at room temperature for 15 min, blocked with 1% FBS in PBS, and followed by incubation in primary antibodies at 4 °C overnight: rabbit anti-YAP (1:50 dilution, ab205270, abcam). The sections were then washed with PBS, incubated with anti-rabbit secondary antibody for 2 h and dyed with DAPI (10 μg/mL in PBS) for 5 min at room temperature. Slides were mounted using DPX Mountant (Electron Microscopy Sciences) and images were obtained by inverted fluorescence microscope (Olympus, Tokyo, Japan).

BxPC-3 cells [3] = experiment: Transwell migration assay, BxPC-3; type: cell-based, human; conditions: 0.1 μM PGE2; 16 h
Experimental: (§2) The transwell assay was conducted as described previously, using 8 μm pore transwell inserts (Corning, NY, USA). Cells were suspended in serum-free DMEM and seeded into upper chambers at appropriate density. The bottom chamber was filled with DMEM supplemented with 10% fetal bovine serum and indicated concentrations of PGE2. The compounds were added in both upper and bottom chambers. […] Migrated cells were counted and quantified using image J.

[4] = system: YAP/TEAD reporter in BxPC-3 cells; experiment: TEAD-driven luciferase reporter assay, BxPC-3; type: cell-based, human; conditions: 16 h
Experimental: (§3) CHO-K1 cells or pancreatic cancer cell lines were transfected with a cAMP responsive element (CRE) reporter or TEAD reporter using lipofectamine 2000 according to the manufacturer’s manual. […] Then, cells were lysed and luciferase activities were determined using Dual-Luciferase Reporter Assay Kit (Promega, Madison, WI, USA).

BxPC-3 cells [5] = experiment: Wound healing assay, BxPC-3; type: cell-based, human; conditions: various concentrations of PGE2
Experimental: (§4) The wound healing assay was performed according to a standard protocol as described before. Briefly, Pan02 and BxPC-3 cells were grown as a confluent monolayer in 12-well plates (Corning, Corning, NY, USA) overnight and starved with serum-free medium for 6 h. The monolayer cells were disrupted with a P100 micropipette tip (JET BIOFIL, Guangzhou, China) and rinsed with PBS to remove detached cells. Medium containing different concentrations of compounds was added subsequently. After 24 h, treated cells were stained with 2 μM calcein-AM (Yeasen, Shanghai, China) for 20 min and washed with PBS. Photos were taken of the area in the scraped zone of each dish at 100× magnification by using an inverted fluorescent microscope (OLYMPUS, Tokyo, Japan).

[6] = system: YAP, CYR61, CTGF, Vimentin, Snail, E-cadherin mRNA in BxPC-3 cells; experiment: Real-time qPCR of YAP, YAP target genes and EMT markers, BxPC-3; type: cell-based, human; conditions: 10 μM PGE2
Experimental: (§5) Total RNA was extracted from cells using TRIzol reagent. The cDNA was synthesized by RT-PCR kit (Vazyme Biotech, Nanjing, China). The band intensity was determined by the gel image analysis system (Bio-Rad, Hercules, CA, USA). SYBR Green-based qPCR (Yeason, Shanghai, China) was conducted subsequently. Relative mRNA levels of target genes were normalized with β-actin. The sequences of primers are listed in Supplementary Table S1. The raw data are listed in Supplementary Table S2.

[7] = system: YAP/TEAD reporter in Pan02 cells; experiment: TEAD-driven luciferase reporter assay, Pan02; type: cell-based, murine; conditions: 16 h
Experimental: as §3

[8] = system: YAP protein in Pan02 cells; experiment: Western blotting of YAP protein, Pan02; type: cell-based, murine; conditions: 10 μM PGE2
Experimental: (§6) Cells were lysed in RIPA lysis buffer with phosphatase and protease inhibitors (Calbiochem, San Diego, CA, USA) and denatured by heating at 100 °C for 10 min. Proteins were separated on 10% bis-tris polyacrylamide gels, transferred to nitrocellulose filter membranes (Millipore, Burlington, NJ, USA), and blocked with 5% BSA (Sangon Biotech, Shanghai, China). The membranes were incubated with the indicated primary antibodies overnight and subsequently probed with indicated secondary antibodies. Images of the blots were taken and analyzed by Odyssey imaging system (Li-COR Biosciences, Lincoln, NE, USA). The primary antibodies were listed as follows: Human-YAP (1:10,000 dilution, CY5381, abways); Mouse-YAP (1:1000 dilution, ab205270, abcam); EP4 (1:500 dilution, 101775, Cayman Chemical); GAPDH (1:10,000 dilution, Ab181602, abcam).

[9] = system: YAP, CYR61 and CTGF mRNA in Pan02 cells; experiment: Real-time qPCR of YAP and YAP target genes, Pan02; type: cell-based, murine; conditions: 10 μM PGE2
Experimental: as §5

Pan02 cells [10] = experiment: Wound healing assay, Pan02; type: cell-based, murine; conditions: various concentrations of PGE2
Experimental: as §4

[11] = system: YAP protein in BxPC-3 cells; experiment: Western blotting of YAP protein, BxPC-3; type: cell-based, human; conditions: 10 μM PGE2
Experimental: as §6

Pan02 cells [12] = experiment: Transwell migration assay, Pan02; type: cell-based, murine; conditions: 0.1 μM PGE2; 16 h
Experimental: as §2

SMILES | body weight loss [1] | H&E imaging of liver sections [2] | reduction of Pan02 cell liver metastases (bioluminescence of separated livers) [2] | reduction in median luminescence signal compared with vehicle control group [2] | median survival [2] | increase in migrated BxPC-3 cells (BxPC-3 cells [3]) | max luminescence fold increase of TEAD-driven luciferase activity [4] | cell motility (wound closure) vs vehicle (BxPC-3 cells [5]) | expression of YAP target genes CYR61 and CTGF over time [6] | max luminescence fold increase of TEAD-driven luciferase activity [7] | level of intracellular YAP protein over time [8] | expression of YAP target genes CYR61 and CTGF over time [9] | cell motility (wound closure) vs vehicle (Pan02 cells [10]) | level of intracellular YAP protein over time [11] | increase in migrated Pan02 cells (Pan02 cells [12])
Nc1ccn([C@@H]2O[C@H](CO)[C@@H](O)C2(F)F)c(=O)n1 [gemcitabine] | barely found | remarkably reduced metastatic clusters | 93.2% | 91.79% | 46 days | – | – | – | – | – | – | – | – | – | –
CCCCC[C@H](O)/C=C/[C@H]1[C@H](O)CC(=O)[C@@H]1C/C=C\CCCC(=O)O [PGE2, Prostaglandin E2, reference compound] | – | – | – | – | – | 2.5 fold | 1.56 fold | significantly promoted the motility | elevated | 1.87 fold | significantly increased | elevated | significantly promoted the motility | significantly increased | 1.2 fold
C[C@H](NC(=O)c1c(C(F)F)nn(C)c1Oc1cccc(C(F)(F)F)c1)c1ccc(C(=O)O)cc1 [E7046] | – | remarkably reduced metastatic clusters | 76.42% | 69.13% | 35 days | – | – | – | – | – | – | – | – | – | –
